Assay [1] has as its system Zsw77 (RNA, riboswitch) GGAUACAGGACUGGCGGAUUAGUGGAAGCAACCACGUGGACUGUAUCCGAAGAAAAGCCGACCGCCUGGGCAAAAA
Kind of assay: ITC. Conditions: K+ 50 mM KCl + 25 mM potassium phosphate; Mg2+ 10 mM MgCl2 (assumed from NMR prep); pH 6.2; 60 μM RNA; stoichiometry free, binding-competent fraction 53%.

Assay [2] concerns Zsw81 (RNA, riboswitch) GGAUACAGGACUGGCGGAUUAGUGGAAGCAACCACGUGGACUGUAUCCGAAGAAAAGCCGACCGCCUGGGCAAAAAUUAG
Kind of assay: ITC. Particulars: K+ 50 mM KCl + 25 mM potassium phosphate; Mg2+ 10 mM MgCl2 (assumed from NMR prep); pH 6.2; 60 μM RNA; stoichiometry free, binding-competent fraction 13%.

The test system of assay [3] is Zsw91 (RNA, riboswitch) GGAUACAGGACUGGCGGAUUAGUGGAAGCAACCACGUGGACUGUAUCCGAAGAAAAGCCGACCGCCUGGGCAAAAAUUAGCCCAGGCGGU
Kind of assay: ITC. Particulars: K+ (50 mM KCl, 25 mM potassium phosphate); Mg2+ for ITC not stated; pH 6.2; 60 μM RNA, 600 μM ZMP in syringe.

Assay [4] has as its system Zsw101 (RNA, riboswitch) GGAUACAGGACUGGCGGAUUAGUGGAAGCAACCACGUGGACUGUAUCCGAAGAAAAGCCGACCGCCUGGGCAAAAAUUAGCCCAGGCGGUAUUUAUUUUU
Kind of assay: 1H NMR. Particulars: 50 mM KCl, 25 mM potassium phosphate, Mg2+; pH 6.2.

Assay [5] deals with Zsw48+Zsw15 (RNA, riboswitch) GGAUACAGGACUGGCGGAUUAGUGGAAGCAACCACGUGGACUGUAUCCG/GCCGACCGCCUGGGC
Kind of assay: 1H NMR. Conditions: 50 mM KCl, 25 mM potassium phosphate, 10 mM Mg2+; pH 6.2; 100 μM RNA, 2 eq. ZMP; affinity lower than Zsw77.

Assay [6] deals with Zsw83 (RNA, riboswitch) GGAUACAGGACUGGCGGAUUAGUGGAAGCAACCACGUGGACUGUAUCCGAAGAAAAGCCGACCGCCUGGGCAAAAAUUAGCC
Nature of the assay: 1H NMR titration. Particulars: 50 mM KCl, 25 mM potassium phosphate, 10 mM Mg2+; pH 6.2; 120 μM RNA; up to 2 eq. ZMP.

Assay [7] has as its system Zsw84 (RNA, riboswitch) GGAUACAGGACUGGCGGAUUAGUGGAAGCAACCACGUGGACUGUAUCCGAAGAAAAGCCGACCGCCUGGGCAAAAAUUAGCCC
Nature of the assay: 1H NMR titration. Conditions: 50 mM KCl, 25 mM potassium phosphate, 10 mM Mg2+; pH 6.2; up to 2 eq. ZMP.

For assay [8], the system named is Zsw85 (RNA, riboswitch) GGAUACAGGACUGGCGGAUUAGUGGAAGCAACCACGUGGACUGUAUCCGAAGAAAAGCCGACCGCCUGGGCAAAAAUUAGCCCA
Nature of the assay: 1H NMR titration. Conditions: 50 mM KCl, 25 mM potassium phosphate, 10 mM Mg2+; pH 6.2; up to 2 eq. ZMP.

The test system of assay [9] is Zsw86 (RNA, riboswitch) GGAUACAGGACUGGCGGAUUAGUGGAAGCAACCACGUGGACUGUAUCCGAAGAAAAGCCGACCGCCUGGGCAAAAAUUAGCCCAG
Kind of assay: 1H NMR titration. Particulars: 50 mM KCl, 25 mM potassium phosphate, 10 mM Mg2+; pH 6.2; up to 2 eq. ZMP.

Assay [10] has as its system Zsw87 (RNA, riboswitch) GGAUACAGGACUGGCGGAUUAGUGGAAGCAACCACGUGGACUGUAUCCGAAGAAAAGCCGACCGCCUGGGCAAAAAUUAGCCCAGG
Kind of assay: 1H NMR titration. Conditions: 50 mM KCl, 25 mM potassium phosphate, 10 mM Mg2+; pH 6.2; up to 2 eq. ZMP.

Assay [11] relates to Zsw89 (RNA, riboswitch) GGAUACAGGACUGGCGGAUUAGUGGAAGCAACCACGUGGACUGUAUCCGAAGAAAAGCCGACCGCCUGGGCAAAAAUUAGCCCAGGCG
Kind of assay: 1H NMR titration. Conditions: 50 mM KCl, 25 mM potassium phosphate, 10 mM Mg2+; pH 6.2; up to 2 eq. ZMP.

Assay [12] deals with Zsw90 (RNA, riboswitch) GGAUACAGGACUGGCGGAUUAGUGGAAGCAACCACGUGGACUGUAUCCGAAGAAAAGCCGACCGCCUGGGCAAAAAUUAGCCCAGGCGG
Kind of assay: 1H NMR titration. Particulars: 50 mM KCl, 25 mM potassium phosphate, 10 mM Mg2+; pH 6.2; up to 2 eq. ZMP.

Assay [13] relates to Zsw82 (RNA, riboswitch) GGAUACAGGACUGGCGGAUUAGUGGAAGCAACCACGUGGACUGUAUCCGAAGAAAAGCCGACCGCCUGGGCAAAAAUUAGC
Nature of the assay: ITC and 1H NMR titration. Particulars: 50 mM KCl, 25 mM potassium phosphate, 10 mM Mg2+ (NMR); pH 6.2; minor binding-competent population prevented curve fitting.

Assay [14] concerns Zsw77 (RNA, riboswitch) GGAUACAGGACUGGCGGAUUAGUGGAAGCAACCACGUGGACUGUAUCCGAAGAAAAGCCGACCGCCUGGGCAAAAA
Kind of assay: 1H NMR titration, U42 imino intensity. Conditions: 50 mM KCl, 25 mM potassium phosphate, 10 mM Mg2+; pH 6.2; RNA concentration free in fit, binding-competent fraction 70%.

For assay [15], the system named is Zsw81 (RNA, riboswitch) GGAUACAGGACUGGCGGAUUAGUGGAAGCAACCACGUGGACUGUAUCCGAAGAAAAGCCGACCGCCUGGGCAAAAAUUAG
Kind of assay: 1H NMR titration, U42 imino intensity. Particulars: 50 mM KCl, 25 mM potassium phosphate, 10 mM Mg2+; pH 6.2; RNA concentration free in fit, binding-competent fraction 43%.

Data on one compound can be found in publication PMC7337938 (2020).

Each structure is given as a SMILES string.

Turning to `NC(=O)c1ncn([C@@H]2O[C@H](COP(=O)(O)O)[C@@H](O)[C@H]2O)c1N`, the dissociation constant turned out to be 0.57 µM in [1], 0.54 µM in [2], 2.78 µM in [14] and 2.58 µM in [15]. In addition, the binding result in assay [3] is “no”; in [4], “no”; in assay [5], “yes”; in [6], “no”; in assay [7], “no”; in assay [8], “no”. Besides, the binding entry was “no” in assay [9]; “no” in assay [10]; “no” in [11]; “no” in assay [12]; “weak” in assay [13].
